Results reported in patent publication US9302999B2, “Substituted triazoles as herbicides” (E. I. DU PONT DE NEMOURS AND COMPANY, priority 2012, dated 2016).

Columns and labels:
Assay type in all cases: in vivo
[1] = test system: barnyardgrass (Echinochloa crus-galli); experiment: Test A pre-/postemergence: barnyardgrass; conditions: for Barnyardgrass plant response rating: Postemergence; for Plant response rating, Barnyardgrass: Preemergence
Method in brief: (§1)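 Injury was scored visually on a 0 (no effect) to 100 (complete control) scale versus untreated controls roughly ten days after treatment in the greenhouse. Compounds, formulated in surfactant-containing non-phytotoxic solvent, went on as soil-directed preemergence spray or postemergence to one- to two-leaf plants 2–10 cm tall.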

[2] = test system: crabgrass, large (large crabgrass, Digitaria sanguinalis); experiment: Test A pre-/postemergence: crabgrass, large; conditions: for Crabgrass, Large plant response rating: Postemergence; for Plant response rating, Crabgrass, Large: Preemergence
Method in brief: as §1

[3] = test system: foxtail, giant (giant foxtail, Setaria faberii); experiment: Test A pre-/postemergence: foxtail, giant; conditions: for Foxtail, Giant plant response rating: Postemergence; for Plant response rating, Foxtail, Giant: Preemergence
Method in brief: as §1

[4] = test system: morningglory (Ipomoea spp.); experiment: Test A pre-/postemergence: morningglory; conditions: for Morningglory plant response rating: Postemergence; for Plant response rating, Morningglory: Preemergence
Method in brief: as §1

[5] = test system: pigweed (Amaranthus retroflexus); experiment: Test A pre-/postemergence: pigweed; conditions: for Pigweed plant response rating: Postemergence; for Plant response rating, Pigweed: Preemergence
Method in brief: as §1

[6] = test system: velvetleaf (Abutilon theophrasti); experiment: Test A pre-/postemergence: velvetleaf; conditions: for Velvetleaf plant response rating: Postemergence; for Plant response rating, Velvetleaf: Preemergence
Method in brief: as §1

[7] = test system: wheat (Triticum aestivum); experiment: Test A pre-/postemergence: wheat; conditions: for Wheat plant response rating: Postemergence; for Plant response rating, Wheat: Preemergence
Method in brief: as §1

corn (Zea mays) = experiment: Test A pre-/postemergence: corn; conditions: for Corn plant response rating: Postemergence; for Plant response rating, Corn: Preemergence
Method in brief: as §1

rice (Oryza sativa) = experiment: Test C flooded paddy test: rice; conditions: scale 0 to 100 (0 no effect, 100 complete control)
Method in brief: (§2)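 Rating: visual, 0–100 (100 = complete control), versus untreated controls after 13 to 15 greenhouse days. Treatment went into paddy water held at 3 cm over the soil, on plants grown to two leaves.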

[8] = test system: sedge, umbrella (small-flower umbrella sedge, Cyperus difformis); experiment: Test C flooded paddy test: sedge, umbrella; conditions: scale 0 to 100 (0 no effect, 100 complete control)
Method in brief: as §2

[9] = test system: ducksalad (Heteranthera limosa); experiment: Test C flooded paddy test: ducksalad; conditions: scale 0 to 100 (0 no effect, 100 complete control)
Method in brief: as §2

[10] = test system: barnyardgrass (Echinochloa crus-galli); experiment: Test C flooded paddy test: barnyardgrass; conditions: scale 0 to 100 (0 no effect, 100 complete control)
Method in brief: as §2

[11] = 125 g ai/ha, 0 to 100 scale, 0 is no effect, 100 is complete control
[12] = 500 g ai/ha, visual rating on 0 to 100 scale (0 no effect, 100 complete control), approximately ten days
[13] = 125 g ai/ha, 0 to 100 scale (0 no effect, 100 complete control)
[14] = 500 g ai/ha, 0 to 100 scale, 0 is no effect, 100 is complete control
[15] = Flood (flooded paddy test), 62 g ai/ha, visual rating after 13 to 15 days
[16] = Flood (flooded paddy test), 125 g ai/ha, visual rating after 13 to 15 days
[17] = Flood (flooded paddy test), 250 g ai/ha, visual rating after 13 to 15 days

SMILES: Cc1nn(-c2ccc(F)cc2)nc1Cn1cnc(C(F)(F)F)c1Cl [Compound 36]
- Barnyardgrass plant response rating [1, 11]: 0
- Barnyardgrass plant response rating [1, 12]: 0
- Plant response rating, Barnyardgrass [1, 13]: 0
- Plant response rating, Barnyardgrass [1, 14]: 0
- Crabgrass, Large plant response rating [2, 11]: 0
- Crabgrass, Large plant response rating [2, 12]: 0
- Plant response rating, Crabgrass, Large [2, 13]: 0
- Plant response rating, Crabgrass, Large [2, 14]: 10
- Foxtail, Giant plant response rating [3, 11]: 0
- Foxtail, Giant plant response rating [3, 12]: 0
- Plant response rating, Foxtail, Giant [3, 13]: 0
- Plant response rating, Foxtail, Giant [3, 14]: 0
- Morningglory plant response rating [4, 11]: 0
- Morningglory plant response rating [4, 12]: 0
- Plant response rating, Morningglory [4, 13]: 0
- Plant response rating, Morningglory [4, 14]: 0
- Pigweed plant response rating [5, 11]: 0
- Pigweed plant response rating [5, 12]: 20
- Plant response rating, Pigweed [5, 13]: 0
- Plant response rating, Pigweed [5, 14]: 0
- Velvetleaf plant response rating [6, 11]: 0
- Velvetleaf plant response rating [6, 12]: 10
- Plant response rating, Velvetleaf [6, 13]: 0
- Plant response rating, Velvetleaf [6, 14]: 0
- Wheat plant response rating [7, 11]: 0
- Wheat plant response rating [7, 12]: 0
- Plant response rating, Wheat [7, 13]: 0
- Plant response rating, Wheat [7, 14]: 0
- Corn plant response rating (corn (Zea mays); [11]): 0
- Corn plant response rating (corn (Zea mays); [12]): 0
- Plant response rating, Corn (corn (Zea mays); [13]): 0
- Plant response rating, Corn (corn (Zea mays); [14]): 0
- Plant response rating, Rice (rice (Oryza sativa); [15]): 0
- Plant response rating, Rice (rice (Oryza sativa); [16]): 0
- Plant response rating, Rice (rice (Oryza sativa); [17]): 0
- Plant response rating, Rice (rice (Oryza sativa); Flood, 31 g ai/ha): 0
- Plant response rating, Sedge, Umbrella [8, 15]: 0
- Plant response rating, Sedge, Umbrella [8, 16]: 0
- Plant response rating, Sedge, Umbrella [8, 17]: 0
- Plant response rating, Sedge, Umbrella ([8]; Flood, 31 g ai/ha): 0
- Plant response rating, Ducksalad [9, 15]: 0
- Plant response rating, Ducksalad [9, 16]: 0
- Plant response rating, Ducksalad [9, 17]: 0
- Plant response rating, Ducksalad ([9]; Flood, 31 g ai/ha): 0
- Plant response rating, Barnyardgrass [10, 15]: 0
- Plant response rating, Barnyardgrass [10, 16]: 0
- Plant response rating, Barnyardgrass [10, 17]: 0
- Plant response rating, Barnyardgrass ([10]; Flood, 31 g ai/ha): 0

SMILES: Cc1nn(-c2ccc(C(F)(F)F)cc2)nc1Oc1ccc(C(F)(F)F)cc1 [Compound 83]
- Barnyardgrass plant response rating [1, 11]: 0
- Barnyardgrass plant response rating [1, 12]: 0
- Plant response rating, Barnyardgrass [1, 13]: 0
- Plant response rating, Barnyardgrass [1, 14]: 0
- Crabgrass, Large plant response rating [2, 11]: 0
- Crabgrass, Large plant response rating [2, 12]: 0
- Plant response rating, Crabgrass, Large [2, 13]: 0
- Plant response rating, Crabgrass, Large [2, 14]: 0
- Foxtail, Giant plant response rating [3, 11]: 0
- Foxtail, Giant plant response rating [3, 12]: 0
- Plant response rating, Foxtail, Giant [3, 13]: 0
- Plant response rating, Foxtail, Giant [3, 14]: 0
- Morningglory plant response rating [4, 11]: 0
- Morningglory plant response rating [4, 12]: 0
- Plant response rating, Morningglory [4, 13]: 0
- Plant response rating, Morningglory [4, 14]: 0
- Pigweed plant response rating [5, 11]: 0
- Pigweed plant response rating [5, 12]: 0
- Plant response rating, Pigweed [5, 13]: 0
- Plant response rating, Pigweed [5, 14]: 0
- Velvetleaf plant response rating [6, 11]: 0
- Velvetleaf plant response rating [6, 12]: 0
- Plant response rating, Velvetleaf [6, 13]: 0
- Plant response rating, Velvetleaf [6, 14]: 0
- Wheat plant response rating [7, 11]: 0
- Wheat plant response rating [7, 12]: 0
- Plant response rating, Wheat [7, 13]: 0
- Plant response rating, Wheat [7, 14]: 0
- Corn plant response rating (corn (Zea mays); [11]): 0
- Corn plant response rating (corn (Zea mays); [12]): 0
- Plant response rating, Corn (corn (Zea mays); [13]): 0
- Plant response rating, Corn (corn (Zea mays); [14]): 0
- Plant response rating, Rice (rice (Oryza sativa); [16]): 20
- Plant response rating, Rice (rice (Oryza sativa); [17]): 25
- Plant response rating, Rice (rice (Oryza sativa); Flood, 31 g ai/ha): 10
- Plant response rating, Rice (rice (Oryza sativa); Flood, 62 g ai/ha): 20
- Plant response rating, Sedge, Umbrella [8, 16]: 20
- Plant response rating, Sedge, Umbrella [8, 17]: 30
- Plant response rating, Sedge, Umbrella ([8]; Flood, 31 g ai/ha): 10
- Plant response rating, Sedge, Umbrella ([8]; Flood, 62 g ai/ha): 20
- Plant response rating, Ducksalad [9, 16]: 20
- Plant response rating, Ducksalad [9, 17]: 30
- Plant response rating, Ducksalad ([9]; Flood, 31 g ai/ha): 0
- Plant response rating, Ducksalad ([9]; Flood, 62 g ai/ha): 20
- Plant response rating, Barnyardgrass [10, 16]: 0
- Plant response rating, Barnyardgrass [10, 17]: 0
- Plant response rating, Barnyardgrass ([10]; Flood, 31 g ai/ha): 0
- Plant response rating, Barnyardgrass ([10]; Flood, 62 g ai/ha): 0

SMILES: Cc1nn(-c2ccc(Cl)cc2)nc1C(=O)c1cccc(C(F)(F)F)c1 [Compound 42]
- Barnyardgrass plant response rating [1, 11]: 0
- Barnyardgrass plant response rating [1, 12]: 10
- Plant response rating, Barnyardgrass [1, 13]: 0
- Plant response rating, Barnyardgrass [1, 14]: 10
- Crabgrass, Large plant response rating [2, 11]: 10
- Crabgrass, Large plant response rating [2, 12]: 30
- Plant response rating, Crabgrass, Large [2, 13]: 10
- Plant response rating, Crabgrass, Large [2, 14]: 50
- Foxtail, Giant plant response rating [3, 11]: 10
- Foxtail, Giant plant response rating [3, 12]: 20
- Plant response rating, Foxtail, Giant [3, 13]: 10
- Plant response rating, Foxtail, Giant [3, 14]: 70
- Morningglory plant response rating [4, 11]: 10
- Morningglory plant response rating [4, 12]: 50
- Plant response rating, Morningglory [4, 13]: 0
- Plant response rating, Morningglory [4, 14]: 10
- Pigweed plant response rating [5, 11]: 50
- Pigweed plant response rating [5, 12]: 90
- Plant response rating, Pigweed [5, 13]: 10
- Plant response rating, Pigweed [5, 14]: 60
- Velvetleaf plant response rating [6, 11]: 10
- Velvetleaf plant response rating [6, 12]: 20
- Plant response rating, Velvetleaf [6, 13]: 0
- Plant response rating, Velvetleaf [6, 14]: 0
- Wheat plant response rating [7, 11]: 0
- Wheat plant response rating [7, 12]: 10
- Plant response rating, Wheat [7, 13]: 0
- Plant response rating, Wheat [7, 14]: 0
- Corn plant response rating (corn (Zea mays); [11]): 10
- Corn plant response rating (corn (Zea mays); [12]): 10
- Plant response rating, Corn (corn (Zea mays); [13]): 0
- Plant response rating, Corn (corn (Zea mays); [14]): 0
- Plant response rating, Rice (rice (Oryza sativa); [15]): 0
- Plant response rating, Rice (rice (Oryza sativa); [17]): 0
- Plant response rating, Sedge, Umbrella [8, 15]: 0
- Plant response rating, Sedge, Umbrella [8, 17]: 0
- Plant response rating, Ducksalad [9, 15]: 0
- Plant response rating, Ducksalad [9, 17]: 0
- Plant response rating, Barnyardgrass [10, 15]: 0
- Plant response rating, Barnyardgrass [10, 17]: 0
